Measured values reported in ChEMBL document CHEMBL1148059, “Isolation and structure elucidation of new nitrile and mustard oil glycosides from Moringa oleifera and their effect on blood pressure” (1994).
Active and inactive are the calls of the source. No cut-off for these calls is given here.

Experiments:
[1] = tested on: Rattus norvegicus; assay: Hypotensive activity against normotensive anesthetized Wistar rat assessed as reduction in mean arterial blood pressure at 1 ug/kg, iv; assay type: functional; parameters: scale not given: the % may be the effect or the level left
[2] = tested on: Rattus norvegicus; assay: Hypotensive activity against normotensive anesthetized Wistar rat assessed as reduction in mean arterial blood pressure up to 5 mg/kg, iv
[3] = tested on: Rattus norvegicus; assay: Hypotensive activity against normotensive anesthetized Wistar rat assessed as reduction in mean arterial blood pressure at 3 ug/kg, iv; assay type: functional; parameters: scale not given: the % may be the effect or the level left
[4] = tested on: Rattus norvegicus; assay: Hypotensive activity against normotensive anesthetized Wistar rat assessed as reduction in mean arterial blood pressure up to 5 ug/kg, iv; assay type: functional, organism-based
[5] = tested on: Rattus norvegicus; assay: Hypotensive activity against normotensive anesthetized Wistar rat assessed as reduction in mean arterial blood pressure at 3 mg/kg, iv; parameters: scale not given: the % may be the effect or the level left

Question: How did the Activity [1] turn out when `CC(=O)OCC[N+](C)(C)C` [ACETYLCHOLINE] was run?
Answer: The Activity was 59.5%.

Question: Which Activity [2] does the source give for `C[C@@H]1O[C@@H](Oc2ccc(CC#N)cc2)[C@H](O)[C@H](O)[C@H]1O` here?
Answer: The Activity was “inactive”.

Question: For `CC(=O)O[C@@H]1[C@@H](O)[C@@H](O)[C@H](Oc2ccc(CC#N)cc2)O[C@H]1C`, which Activity [2] is on record?
Answer: The Activity was “inactive”.

Question: How did the Activity [3] turn out when `CCOC(=S)NCc1ccc(O[C@@H]2O[C@@H](C)[C@H](OC(C)=O)[C@@H](O)[C@H]2O)cc1` [listing 1 of 3 here] was run?
Answer: The Activity was 40.33%.

Question: With `CCOC(=S)NCc1ccc(O[C@@H]2O[C@@H](C)[C@H](OC(C)=O)[C@@H](O)[C@H]2O)cc1` [listing 2 of 3 here] as the molecule, how does the Activity [4] read?
Answer: The Activity was “Active”.

Question: `CC(=O)O[C@@H]1[C@@H](O)[C@@H](O)[C@H](Oc2ccc(CN=C=S)cc2)O[C@H]1C` was tested. Which Activity [2] did it give?
Answer: Its Activity is “Active”.

Question: What about the Activity [5] of the same molecule?
Answer: The Activity was 34.91%.

Question: `CCOC(=S)NCc1ccc(O[C@@H]2O[C@@H](C)[C@H](OC(C)=O)[C@@H](O)[C@H]2O)cc1` [listing 3 of 3 here] was tested. Which Activity [3] did it give?
Answer: Its Activity is 37.51%.
